For 15 compounds, IC50, Papp A→B and Papp B→A results are on record in patent publication US9932324B2, “Substituted benzimidazolium compounds useful in the treatment of respiratory diseases” (Boehringer Ingelheim International GmbH, priority 2015, dated 2018).

Data set [1] addresses T1, ENaC (Epithelial Sodium Channel) in mouse kidney M-1 cells (Mus musculus, UniProt Q61180+Q9WU38+Q9WU39).
T1 construct: Mouse kidney M-1 cells were cultivated in DMEM containing 5% FCS and 5 μM dexamethasone; endogenous in cells; host or cells: mouse kidney M-1 cells
T1 sequence (Q61180 1-699): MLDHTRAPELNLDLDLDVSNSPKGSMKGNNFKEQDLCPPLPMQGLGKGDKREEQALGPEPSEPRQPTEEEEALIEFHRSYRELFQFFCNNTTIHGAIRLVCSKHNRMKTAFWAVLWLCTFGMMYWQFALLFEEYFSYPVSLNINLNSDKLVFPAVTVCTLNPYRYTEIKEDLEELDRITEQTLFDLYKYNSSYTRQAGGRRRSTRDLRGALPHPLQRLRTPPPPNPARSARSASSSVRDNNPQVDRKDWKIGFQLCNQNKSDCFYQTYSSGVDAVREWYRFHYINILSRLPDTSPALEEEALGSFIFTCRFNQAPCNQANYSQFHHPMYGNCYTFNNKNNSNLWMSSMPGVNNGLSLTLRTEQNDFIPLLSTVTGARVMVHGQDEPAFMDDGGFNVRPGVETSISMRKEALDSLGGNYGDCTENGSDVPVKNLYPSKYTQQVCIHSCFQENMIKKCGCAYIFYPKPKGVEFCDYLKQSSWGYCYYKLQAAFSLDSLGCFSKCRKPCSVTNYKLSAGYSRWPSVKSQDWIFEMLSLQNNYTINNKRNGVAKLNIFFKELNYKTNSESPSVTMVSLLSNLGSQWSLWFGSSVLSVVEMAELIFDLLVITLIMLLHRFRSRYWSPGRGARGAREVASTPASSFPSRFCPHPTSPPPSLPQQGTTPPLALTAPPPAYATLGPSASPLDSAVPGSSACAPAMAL
T1 sequence (Q9WU38 1-638): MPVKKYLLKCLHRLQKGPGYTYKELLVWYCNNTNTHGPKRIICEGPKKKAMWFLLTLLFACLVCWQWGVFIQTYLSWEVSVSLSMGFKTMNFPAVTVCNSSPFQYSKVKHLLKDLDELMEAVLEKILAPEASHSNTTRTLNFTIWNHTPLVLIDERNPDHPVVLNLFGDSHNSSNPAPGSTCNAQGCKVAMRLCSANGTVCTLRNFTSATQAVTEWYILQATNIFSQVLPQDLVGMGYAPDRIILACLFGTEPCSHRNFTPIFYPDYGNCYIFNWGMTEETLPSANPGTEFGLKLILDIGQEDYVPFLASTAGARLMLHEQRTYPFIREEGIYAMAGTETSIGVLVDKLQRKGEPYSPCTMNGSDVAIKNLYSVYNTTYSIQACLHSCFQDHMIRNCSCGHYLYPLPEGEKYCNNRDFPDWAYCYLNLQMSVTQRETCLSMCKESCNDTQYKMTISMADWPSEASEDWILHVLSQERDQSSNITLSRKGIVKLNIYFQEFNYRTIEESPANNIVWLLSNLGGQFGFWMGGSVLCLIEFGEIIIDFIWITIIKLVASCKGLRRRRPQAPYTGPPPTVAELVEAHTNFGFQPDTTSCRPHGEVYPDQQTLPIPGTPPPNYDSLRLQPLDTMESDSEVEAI
T1 sequence (Q9WU39 1-655): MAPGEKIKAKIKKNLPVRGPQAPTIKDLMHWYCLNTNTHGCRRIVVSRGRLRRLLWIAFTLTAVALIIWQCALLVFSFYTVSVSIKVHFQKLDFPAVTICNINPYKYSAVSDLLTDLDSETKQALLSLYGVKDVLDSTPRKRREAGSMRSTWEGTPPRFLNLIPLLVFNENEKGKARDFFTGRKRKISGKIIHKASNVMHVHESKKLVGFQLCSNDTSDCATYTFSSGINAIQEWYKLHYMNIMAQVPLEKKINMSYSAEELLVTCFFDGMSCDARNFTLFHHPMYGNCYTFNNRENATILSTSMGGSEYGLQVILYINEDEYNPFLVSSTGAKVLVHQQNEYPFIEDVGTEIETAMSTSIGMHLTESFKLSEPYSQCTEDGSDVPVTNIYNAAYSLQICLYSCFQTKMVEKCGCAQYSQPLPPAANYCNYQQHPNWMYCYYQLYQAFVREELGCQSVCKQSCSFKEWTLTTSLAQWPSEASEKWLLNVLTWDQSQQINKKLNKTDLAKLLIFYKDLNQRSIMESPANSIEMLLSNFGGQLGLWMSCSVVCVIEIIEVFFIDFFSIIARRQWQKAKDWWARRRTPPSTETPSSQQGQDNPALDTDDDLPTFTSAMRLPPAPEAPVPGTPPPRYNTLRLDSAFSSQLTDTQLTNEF
The data set can be described thus: Ussing Chamber assay (short circuit current, amiloride sensitive I_SC). Type of data set: cell-based. As to conditions: apical administration, 37° C. As for the experimental part: The IC50 values of the example compounds given above were determined in the Ussing Chamber assay.
Ussing Chamber: Mouse kidney M-1 cells were cultivated in DMEM containing 5% FCS and 5 μM dexamethasone for 10 to 12 days on polyester transwell filters. Filters were inserted into a teflon-coated well-plate which fit into the ussing chamber system. Prior to measurement the medium of M-1 cells was replaced with Caco-2 transport buffer (Invitrogen, Germany). During measurements, the Ussing chamber temperature was kept at 37° C. Short circuit currents (I_sc) were measured in the voltage-clamp mode with the software package Lab View for data acquisition and analysis. The transepithelial electrical resistance (TEER) was determined by the application of voltage steps of ±5 mV every 5 sec. Compounds were administered at a final concentration of 3 μM or at increasing concentrations (1-3-10 μM) to the apical solution. At the end of each experiment the amiloride sensitive I_SC was measured by adding 3 μM amiloride to the apical compartment. Results are expressed as inhibition in percent of the amiloride effect or as IC50.

The nature of data set [2]: Permeability in CALU-3 cells. Type of data set: in vitro ADME. As to conditions: human, CALU-3 monolayers, pH 7.4, 37° C., 10 μM compound; for Papp A→B at 90 min, 10 μM: apical-to-basal; for Papp B→A at 90 min, 10 μM: basal-to-apical. The method, then: Permeability in CALU-3 Cells:
Permeability measurements across polarized, confluent CALU-3 cell monolayers grown on permeable filter supports are used to provide information on the potential of a compound to pass the lung epithelium. Apparent permeability coefficients (Papp) of the compounds across the CALU-3 cell monolayers are measured (pH 7.4, 37° C.) in apical-to-basal (AB) and basal-to-apical (BA) transport direction.
CALU-3 cells (1-2×10^5 cells/1 cm^2 area) are seeded on filter inserts (Costar transwell polycarbonate filters, 0.4 μm pore size) and cultured (for 10-12 days DMEM) until tight monolayers are formed. Compounds of interest are dissolved in appropriate solvent (DMSO, 10 mM stock solution). Stock solutions are diluted with HTP-4 buffer (128.13 mM NaCl, 5.36 mM KCl, 1 mM MgSO4, 1.8 mM CaCl2, 4.17 mM NaHCO3, 1.19 mM Na2HPO4 x 7H2O, 0.41 mM NaH2PO4xH2O, 15 mM HEPES, 20 mM glucose, 0.25% BSA, pH 7.4) to prepare the transport solutions (10 μM compound, final DMSO <=0.5%). The transport solution (TL) is applied to the apical or basolateral donor side for measuring A-B or B-A permeability (3 filter replicates), respectively. The receiver side contains the same buffer as the donor side. After 30 min of accommodation, samples are collected at the start t0=0 min and at the end of the experiment tn=90 min from the donor and at 0, 30, 60, and 90 min also from the receiver chamber. Volume removed is […] by HTP-4 buffer. The compound concentration in the samples is measured by HPLC-MS/MS or scintillation counting. The permeability coefficient (Papp) and efflux ratio are calculated according to: Papp [cm/s]=(concentration receiver [nM]*volume receiver [mL]/time interval [sec])*(1/filter area)*(1/donor concentration [nM]).

SMILES strings stand for the structures.

In general, IC50 refers to the concentration needed to halve the response being measured. Read a low IC50 as inhibition by little substance. In data set [1], `CCn1c(CNC(=O)c2nc(Cl)c(N)nc2N)[n+](CC)c2c(C(=O)NCCCNC(=O)OC(C)(C)C)cccc21` [Example 3.03] registered an IC50 of 5 nM.
`CC[n+]1c(CNC(=O)c2nc(Cl)c(N)nc2N)n(CCOCCO)c2cccc(OCC(=O)NC3CCNCC3)c21` [Example 7.01]: the midpoint of inhibition in data set [1], the IC50, lay at 11 nM.
In general, Papp A→B refers to how fast a substance crosses the layer from the apical side. Read a low Papp A→B as poor permeation. The term Papp B→A denotes how fast a substance crosses the layer from the basolateral side. For `CCn1c(CNC(=O)c2nc(Cl)c(N)nc2N)[n+](CC)c2c(C(=O)NCCCN)cccc21.Cl.[Cl-]` [Example 6.01], in data set [2], the Papp A→B at 90 min, 10 μM is 0.1 ×10⁻⁶ cm/s and the Papp B→A at 90 min, 10 μM amounted to 0.09 ×10⁻⁶ cm/s. In data set [1], this compound yielded an IC50 of 5 nM.
The compound `CCn1c(CNC(=O)c2nc(Cl)c(N)nc2N)[n+](CC)c2c(C(=O)N3CCN(C(=O)OC(C)(C)C)CC3)cccc21` [Example 3.04] yielded an IC50 in data set [1] of 3 nM.
With `CCn1c(CNC(=O)c2nc(Cl)c(N)nc2N)[n+](CC)c2c(C(=O)NCCN(C)C)cccc21.[Cl-]` [Example 3.05], in data set [2], the Papp A→B at 90 min, 10 μM turned out to be 0.04 ×10⁻⁶ cm/s and the Papp B→A at 90 min, 10 μM stood at 0.06 ×10⁻⁶ cm/s. Moreover, in data set [1], the IC50 was 6 nM.
Take `CC[n+]1c(CNC(=O)c2nc(Cl)c(N)nc2N)n(C[C@@H]2CCCO2)c2cccc(OCC(=O)N3C[C@H](O)[C@@H](O)C3)c21` [Example 1.01]: the IC50 in data set [1] stood at 36 nM.
For `CC[n+]1c(CNC(=O)c2nc(Cl)c(N)nc2N)n(CCOCCO)c2cccc(OC(CO)CO)c21` [Example 5.01], the IC50 in data set [1] was found to be 16 nM.
`CCn1c(CNC(=O)c2nc(Cl)c(N)nc2N)[n+](CC)c2c(C(=O)NC3CCN(C(=O)OC(C)(C)C)CC3)cccc21` [Example 3.02]: it took 3 nM to reach half-maximal inhibition in data set [1] (IC50).
`CCn1c(CNC(=O)c2nc(Cl)c(N)nc2N)[n+](CC)c2c(C(=O)N3CCNCC3)cccc21.[Cl-]` [Example 4.02]: in data set [2], the apparent permeability from apical to basolateral (Papp A→B) at 90 min, 10 μM came out at 0.2 ×10⁻⁶ cm/s and the Papp B→A at 90 min, 10 μM is 0.1 ×10⁻⁶ cm/s. The IC50 in data set [1] came to 3 nM.
Take `CCn1c(CNC(=O)c2nc(Cl)c(N)nc2N)[n+](CC)c2c(C(=O)NC3CCNCC3)cccc21.[Cl-]` [Example 4.03]: in data set [2], the Papp A→B at 90 min, 10 μM came to 0.08 ×10⁻⁶ cm/s and the Papp B→A at 90 min, 10 μM worked out at 0.1 ×10⁻⁶ cm/s. The IC50 in data set [1] turned out to be 5 nM.
For the compound `CC[n+]1c(CNC(=O)c2nc(Cl)c(N)nc2N)n(C[C@@H]2CCCO2)c2cccc(OCC(=O)N(C)Cc3nc(C)ccc3[O-])c21` [Example 1.03], in data set [2], the Papp A→B at 90 min, 10 μM was found to be 0.3 ×10⁻⁶ cm/s and the Papp B→A at 90 min, 10 μM was found to be 0.5 ×10⁻⁶ cm/s. For the same compound, 31 nM corresponded to half-maximal inhibition in data set [1] (IC50).
For `CC[n+]1c(CNC(=O)c2nc(Br)c(N)nc2N)n(C[C@@H]2CCCO2)c2cccc(OCC(=O)N3C[C@H](O)[C@@H](O)C3)c21.O=C([O-])C(F)(F)F` [Example 2.01], in data set [2], the Papp A→B at 90 min, 10 μM came out at 0.2 ×10⁻⁶ cm/s and the basolateral-to-apical permeability (Papp B→A) at 90 min, 10 μM is 0.2 ×10⁻⁶ cm/s. The compound also showed an IC50 in data set [1] of 24 nM.
For the compound `CCn1c(CNC(=O)c2nc(Cl)c(N)nc2N)[n+](CC)c2c(C(=O)N(C)Cc3nc(C)ccc3O)cccc21` [Example 3.01], the IC50 in data set [1] was 2 nM. This lies in the single-digit nanomolar range.
In turn, `CC[n+]1c(CNC(=O)c2nc(Cl)c(C)nc2N)n(C[C@@H]2CCCO2)c2cccc(OCC(=O)NC3CCN(C(=O)OC(C)(C)C)CC3)c21` [Example 1.07] registered an IC50 in data set [1] of 2 nM.
In data set [2], `CC[n+]1c(CNC(=O)c2nc(Cl)c(N)nc2N)n(C[C@@H]2CCCO2)c2cccc(OCC(=O)NC3CCNCC3)c21.O=C(O)C(F)(F)F.O=C([O-])C(F)(F)F` [Example 4.01] returned a Papp A→B at 90 min, 10 μM of 0.3 ×10⁻⁶ cm/s and a basolateral-to-apical permeability (Papp B→A) at 90 min, 10 μM of 0.3 ×10⁻⁶ cm/s. Further, in data set [1], the IC50 was 1 nM.
